In ChEMBL document CHEMBL5727909, “Pyridine derivatives and their use in the treatment of cancer and hemoglobinopathies” (2020):

Target: Protein arginine N-methyltransferase 5 (Homo sapiens, UniProt O14744)
Test: Biochemical Assay : The 6 μL reactions are run in Greiner brand black 384-well low volume assay plates. All reactions contained assay buffer (phosphate buffered saline, 0.01% (v/v) Tween-20, 0.01% (w/v) albumin from chicken egg white, 1 mM Dithiothreitol, 1 μM peptide substrate, 1 μM S-Adenosyl methionine, and 15 ng/reaction enzyme, with the enzyme being omitted from negative control reactions. Compounds were added in a volume of 100 nL from dilution series prepared in DMSO, positive and negative control reactions receiving the same volume DMSO without compound. The plates were sealed with adhesive seals and incubated for 4 hours at 37 degree Celsius. Reaction progress was measured using the Transcreener EPIGEN methyltransferase assay (BellBrook Labs, Madison, Wis.) as recommended by the manufacturer. To each reaction 2 μL detection mix were added, containing coupling enzymes, fluorescence polarisation tracer, and AMP antibody. Plates were incubated for 90 minutes before being read on a PerkinElmer EnVision™ plate reader in fluorescence polarisation mode.

Chain of Protein arginine N-methyltransferase 5 (O14744 whole entry): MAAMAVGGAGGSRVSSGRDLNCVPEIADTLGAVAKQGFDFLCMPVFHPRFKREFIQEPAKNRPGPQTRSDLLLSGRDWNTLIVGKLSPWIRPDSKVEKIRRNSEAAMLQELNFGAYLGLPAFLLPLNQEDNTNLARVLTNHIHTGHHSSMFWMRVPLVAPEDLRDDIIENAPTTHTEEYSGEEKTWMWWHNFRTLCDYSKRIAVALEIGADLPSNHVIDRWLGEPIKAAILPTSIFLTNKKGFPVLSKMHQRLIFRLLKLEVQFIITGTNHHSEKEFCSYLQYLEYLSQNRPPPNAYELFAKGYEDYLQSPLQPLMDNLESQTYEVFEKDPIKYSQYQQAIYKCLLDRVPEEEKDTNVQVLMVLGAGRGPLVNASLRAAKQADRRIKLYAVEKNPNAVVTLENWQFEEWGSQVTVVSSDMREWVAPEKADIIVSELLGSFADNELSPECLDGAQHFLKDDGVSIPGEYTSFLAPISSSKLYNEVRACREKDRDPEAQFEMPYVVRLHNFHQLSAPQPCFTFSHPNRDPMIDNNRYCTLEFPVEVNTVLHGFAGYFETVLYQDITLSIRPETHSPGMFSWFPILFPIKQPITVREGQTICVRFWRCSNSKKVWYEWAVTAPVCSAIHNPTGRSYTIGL

IC50: 105 nM
Compound: CC(=O)N1CCC(Nc2nccc(C(=O)NC[C@@H](O)CNC3CC4C=CC=CC4C3)c2C)CC1 (stereo partly specified)
